Laboratory results published in PubChem BioAssay AID248 (DTP/NCI, 2004).
Several values for one entry are separate records, joined by “and”; a condition that tells them apart may be missing. Equal values may be shown once. Inconclusive results and toxic doses are left out. Rule as the data show it: active = T/C of 150% or more; inactive = T/C below 125%.

System: L1210 leukemia ip in BDF1 mice, survival T/C
Assay: NCI In Vivo Anticancer Drug Screen. Data for tumor model L1210 Leukemia (intraperitoneal) in B6D2F1 (BDF1) mice
Conditions: endpoint: mean survival time, higher = longer survival
Procedure, shortened: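 Transplanted-tumor mice were given test agent; controls received vehicle only. Survival readings from the two groups were divided (treated over control).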

Measured: T/C

O=C1NC(c2cccc3ccccc23)Nc2ccccc21 (centres undefined)
inactive: dose: 12.5 mg/kg/injection, schedule: Q01DX009 (oral), vehicle: Klucel (hydroxypropylcellulose) (HPC) 111 % of control | dose: 12.5 mg/kg/injection, schedule: Q01DX009 (oral), vehicle: methylcellulose (MC) 103 % of control and 109 % of control | dose: 16.0 mg/kg/injection, schedule: Q01DX009 (ip), vehicle: Klucel (hydroxypropylcellulose) (HPC) 100 % of control | dose: 16.0 mg/kg/injection, schedule: Q01DX009 (sc), vehicle: Klucel (hydroxypropylcellulose) (HPC) 98 % of control | dose: 16.0 mg/kg/injection, schedule: Q03HX008 (ip), vehicle: Klucel (hydroxypropylcellulose) (HPC) 109 % of control | dose: 16.0 mg/kg/injection, schedule: Q03HX016 (ip), vehicle: Klucel (hydroxypropylcellulose) (HPC) 104 % of control | dose: 16.0 mg/kg/injection, schedule: Q03HX024 (ip), vehicle: Klucel (hydroxypropylcellulose) (HPC) 102 % of control | dose: 32.0 mg/kg/injection, schedule: Q01DX009 (ip), vehicle: Klucel (hydroxypropylcellulose) (HPC) 98 % of control | dose: 32.0 mg/kg/injection, schedule: Q01DX009 (sc), vehicle: Klucel (hydroxypropylcellulose) (HPC) 102 % of control | dose: 40.0 mg/kg/injection, schedule: Q01DX009 (ip), vehicle: methylcellulose (MC) 110 % of control | dose: 40.0 mg/kg/injection, schedule: Q01DX009 (ip), vehicle: other 107 % of control | dose: 40.0 mg/kg/injection, schedule: Q01DX009 (oral), vehicle: Klucel (hydroxypropylcellulose) (HPC) 98 % of control and 100 % of control | dose: 40.0 mg/kg/injection, schedule: Q01DX009 (oral), vehicle: methylcellulose (MC) 110 % of control | dose: 50.0 mg/kg/injection, schedule: Q01DX009 (oral), vehicle: other 106 % of control | dose: 60.0 mg/kg/injection, schedule: Q01DX009 (oral), vehicle: Klucel (hydroxypropylcellulose) (HPC) 100 % of control and 104 % of control | dose: 60.0 mg/kg/injection, schedule: Q01DX009 (oral), vehicle: methylcellulose (MC) 103 % of control | dose: 62.5 mg/kg/injection, schedule: Q01DX005 (oral), vehicle: saline 97 % of control | dose: 62.5 mg/kg/injection, schedule: Q01DX009 (oral), vehicle: saline 97 % of control | dose: 62.5 mg/kg/injection, schedule: Q01DX009 (oral), vehicle: water 104 % of control | dose: 62.5 mg/kg/injection, schedule: Q04DX003 (oral), vehicle: saline 105 % of control | dose: 64.0 mg/kg/injection, schedule: Q01DX009 (ip), vehicle: Klucel (hydroxypropylcellulose) (HPC) 108 % of control | dose: 64.0 mg/kg/injection, schedule: Q01DX009 (sc), vehicle: Klucel (hydroxypropylcellulose) (HPC) 97 % of control | dose: 80.0 mg/kg/injection, schedule: Q01DX009 (ip), vehicle: methylcellulose (MC) 101 % of control | dose: 80.0 mg/kg/injection, schedule: Q01DX009 (oral), vehicle: Klucel (hydroxypropylcellulose) (HPC) 109 % of control | dose: 80.0 mg/kg/injection, schedule: Q01DX009 (oral), vehicle: methylcellulose (MC) 105 % of control and 110 % of control | dose: 100.0 mg/kg/injection, schedule: Q01DX009 (oral), vehicle: Klucel (hydroxypropylcellulose) (HPC) 100 % of control | dose: 100.0 mg/kg/injection, schedule: Q01DX009 (oral), vehicle: saline 104 % of control and 106 % of control | dose: 100.0 mg/kg/injection, schedule: Q04DX003 (ip), vehicle: other 103 % of control | dose: 100.0 mg/kg/injection, schedule: Q04DX003 (oral), vehicle: Klucel (hydroxypropylcellulose) (HPC) 98 % of control and 104 % of control | dose: 100.0 mg/kg/injection, schedule: Q04DX003 (oral), vehicle: methylcellulose (MC) 104 % of control and 107 % of control | dose: 100.0 mg/kg/injection, schedule: Q04DX003 (oral), vehicle: other 105 % of control | dose: 120.0 mg/kg/injection, schedule: Q01DX009 (oral), vehicle: Klucel (hydroxypropylcellulose) (HPC) 104 % of control | dose: 120.0 mg/kg/injection, schedule: Q01DX009 (oral), vehicle: methylcellulose (MC) 98 % of control | dose: 125.0 mg/kg/injection, schedule: Q01DX005 (oral), vehicle: saline 110 % of control | dose: 125.0 mg/kg/injection, schedule: Q01DX009 (oral), vehicle: Klucel (hydroxypropylcellulose) (HPC) 105 % of control | dose: 125.0 mg/kg/injection, schedule: Q01DX009 (oral), vehicle: saline 103 % of control | dose: 125.0 mg/kg/injection, schedule: Q04DX003 (oral), vehicle: saline 102 % of control | dose: 125.0 mg/kg/injection, schedule: Q04DX003 (oral), vehicle: water 106 % of control | dose: 125.0 mg/kg/injection, schedule: Q07DX002 (ip), vehicle: water 103 % of control | dose: 128.0 mg/kg/injection, schedule: Q01DX001 (ip), vehicle: Klucel (hydroxypropylcellulose) (HPC) 103 % of control | dose: 128.0 mg/kg/injection, schedule: Q01DX001 (sc), vehicle: Klucel (hydroxypropylcellulose) (HPC) 100 % of control | dose: 128.0 mg/kg/injection, schedule: Q01DX009 (ip), vehicle: Klucel (hydroxypropylcellulose) (HPC) 94 % of control | dose: 128.0 mg/kg/injection, schedule: Q01DX009 (sc), vehicle: Klucel (hydroxypropylcellulose) (HPC) 103 % of control | dose: 128.0 mg/kg/injection, schedule: Q04DX003 (ip), vehicle: Klucel (hydroxypropylcellulose) (HPC) 99 % of control | dose: 128.0 mg/kg/injection, schedule: Q08DX002 (ip), vehicle: Klucel (hydroxypropylcellulose) (HPC) 97 % of control | dose: 140.0 mg/kg/injection, schedule: Q01DX009 (ip), vehicle: other 104 % of control | dose: 140.0 mg/kg/injection, schedule: Q01DX009 (oral), vehicle: Klucel (hydroxypropylcellulose) (HPC) 104 % of control and 105 % of control | dose: 140.0 mg/kg/injection, schedule: Q01DX009 (oral), vehicle: methylcellulose (MC) 109 % of control and 111 % of control | dose: 150.0 mg/kg/injection, schedule: Q01DX009 (oral), vehicle: Klucel (hydroxypropylcellulose) (HPC) 107 % of control | dose: 150.0 mg/kg/injection, schedule: Q01DX009 (oral), vehicle: other 108 % of control | dose: 150.0 mg/kg/injection, schedule: Q01DX009 (oral), vehicle: saline 108 % of control | dose: 150.0 mg/kg/injection, schedule: Q04DX003 (ip), vehicle: other 98 % of control | dose: 150.0 mg/kg/injection, schedule: Q04DX003 (oral), vehicle: Klucel (hydroxypropylcellulose) (HPC) 107 % of control and 111 % of control | dose: 150.0 mg/kg/injection, schedule: Q04DX003 (oral), vehicle: methylcellulose (MC) 104 % of control and 105 % of control | dose: 175.0 mg/kg/injection, schedule: Q01DX009 (oral), vehicle: methylcellulose (MC) 105 % of control and 108 % of control | dose: 200.0 mg/kg/injection, schedule: Q04DX003 (ip), vehicle: other 96 % of control | dose: 200.0 mg/kg/injection, schedule: Q04DX003 (oral), vehicle: Klucel (hydroxypropylcellulose) (HPC) 95 % of control and 104 % of control | dose: 200.0 mg/kg/injection, schedule: Q04DX003 (oral), vehicle: methylcellulose (MC) 98 % of control and 104 % of control | dose: 200.0 mg/kg/injection, schedule: Q04DX003 (oral), vehicle: other 108 % of control | dose: 225.0 mg/kg/injection, schedule: Q01DX009 (oral), vehicle: methylcellulose (MC) 110 % of control | dose: 250.0 mg/kg/injection, schedule: Q01DX005 (oral), vehicle: saline 107 % of control | dose: 250.0 mg/kg/injection, schedule: Q01DX009 (oral), vehicle: saline 103 % of control | dose: 250.0 mg/kg/injection, schedule: Q04DX003 (ip), vehicle: Klucel (hydroxypropylcellulose) (HPC) 103 % of control | dose: 250.0 mg/kg/injection, schedule: Q04DX003 (oral), vehicle: Klucel (hydroxypropylcellulose) (HPC) 108 % of control | dose: 250.0 mg/kg/injection, schedule: Q04DX003 (oral), vehicle: methylcellulose (MC) 103 % of control and 104 % of control | dose: 250.0 mg/kg/injection, schedule: Q04DX003 (oral), vehicle: saline 105 % of control | dose: 250.0 mg/kg/injection, schedule: Q04DX003 (oral), vehicle: water 104 % of control | dose: 250.0 mg/kg/injection, schedule: Q07DX002 (ip), vehicle: water 97 % of control | dose: 256.0 mg/kg/injection, schedule: Q01DX001 (ip), vehicle: Klucel (hydroxypropylcellulose) (HPC) 103 % of control | dose: 256.0 mg/kg/injection, schedule: Q01DX001 (sc), vehicle: Klucel (hydroxypropylcellulose) (HPC) 101 % of control | dose: 256.0 mg/kg/injection, schedule: Q01DX009 (sc), vehicle: Klucel (hydroxypropylcellulose) (HPC) 94 % of control | dose: 256.0 mg/kg/injection, schedule: Q04DX003 (ip), vehicle: Klucel (hydroxypropylcellulose) (HPC) 111 % of control | dose: 256.0 mg/kg/injection, schedule: Q08DX002 (ip), vehicle: Klucel (hydroxypropylcellulose) (HPC) 111 % of control | dose: 300.0 mg/kg/injection, schedule: Q04DX003 (ip), vehicle: Klucel (hydroxypropylcellulose) (HPC) 94 % of control | dose: 300.0 mg/kg/injection, schedule: Q04DX003 (oral), vehicle: Klucel (hydroxypropylcellulose) (HPC) 109 % of control and 111 % of control | dose: 300.0 mg/kg/injection, schedule: Q04DX003 (oral), vehicle: methylcellulose (MC) 108 % of control | dose: 500.0 mg/kg/injection, schedule: Q01DX005 (oral), vehicle: saline 107 % of control | dose: 500.0 mg/kg/injection, schedule: Q01DX009 (oral), vehicle: saline 110 % of control | dose: 500.0 mg/kg/injection, schedule: Q04DX003 (oral), vehicle: saline 108 % of control | dose: 500.0 mg/kg/injection, schedule: Q04DX003 (oral), vehicle: water 107 % of control | dose: 512.0 mg/kg/injection, schedule: Q01DX001 (sc), vehicle: Klucel (hydroxypropylcellulose) (HPC) 102 % of control | dose: 1000.0 mg/kg/injection, schedule: Q01DX005 (oral), vehicle: saline 108 % of control | dose: 1000.0 mg/kg/injection, schedule: Q04DX003 (oral), vehicle: saline 105 % of control | dose: 1024.0 mg/kg/injection, schedule: Q01DX001 (sc), vehicle: Klucel (hydroxypropylcellulose) (HPC) 100 % of control
